In the NIST ThermoML archive (doi:10.1016/j.jct.2013.02.017):

Assay: molar heat capacity at constant pressure
Details: 101.33 kPa, Crystal 1, relaxation calorimetry - Quantum Design PPMS

O=P([O-])([O-])[O-].[Fe+3] [iron(III) phosphate]
Details | molar heat capacity at constant pressure [J/K/mol]
26.94 K | 13.87
27.46 K | 13.73
27.94 K | 13.72
28.45 K | 13.76
28.97 K | 13.89
29.45 K | 14.01
29.98 K | 14.01
30 K | 14.02
30.99 K | 14.13
32.01 K | 14.38
33.01 K | 14.68
34.02 K | 15.04
35 K | 15.41
35.05 K | 15.43
36.05 K | 15.83
37.06 K | 16.23
38.07 K | 16.64
39.08 K | 17.07
40 K | 17.52
40.08 K | 17.53
41.1 K | 17.99
42.11 K | 18.43
43.12 K | 18.88
44.12 K | 19.31
45 K | 19.76
45.14 K | 19.79
46.14 K | 20.26
47.17 K | 20.76
48.16 K | 21.23
49.19 K | 21.7
50 K | 22.04
50.22 K | 22.15
53.7 K | 23.85
55 K | 24.35
59.64 K | 26.61
60 K | 26.66
65 K | 28.97
66.28 K | 29.55
70 K | 31.26
73.59 K | 32.72
75 K | 33.49
80 K | 35.67
81.69 K | 36.3
85 K | 37.77
90 K | 39.9
90.72 K | 40.16
95 K | 42.03
100 K | 44.11
100.73 K | 44.09
110 K | 48.06
110.86 K | 47.98
120 K | 51.77
120.94 K | 51.73
130 K | 55.28
131.04 K | 55.47
140 K | 58.62
141.13 K | 58.97
150 K | 61.85
151.25 K | 62.31
160 K | 64.98
161.4 K | 65.71
170 K | 68.05
171.44 K | 68.87
180 K | 71.06
181.6 K | 71.84
190 K | 74.02
191.71 K | 74.76
200 K | 76.93
201.83 K | 77.69
210 K | 79.79
211.94 K | 80.42
220 K | 82.59
222.06 K | 83.12
230 K | 85.33
232.15 K | 85.84
240 K | 88
242.24 K | 88.09
250 K | 90.6
252.28 K | 90.69
260 K | 93.11
262.36 K | 92.91
270 K | 95.55
272.53 K | 95.97
273.15 K | 96.3
280 K | 97.9
282.61 K | 99.14
290 K | 100.17
292.62 K | 101.41
298.15 K | 101.96
300 K | 102.35
302.73 K | 102.84
